# Results taken from patent publication US11293870B2, “Vital stain” (Mie University, priority 2013, dated 2022).
# Entries after “also recorded” stand apart in the source; their conditions may differ. Counter-ions that a name gives are not always drawn. Like-named read-outs stand apart in the source and are kept apart here.
# How the values were obtained:
# [1] = cited from earlier work
# [2] = system: epithelial cells/adenocytes and connective tissue/capillaries; test: Preferential staining of epithelial cells/adenocytes or connective tissue/capillaries; type: in vivo, mouse; details: 5 mg/ml for curcumin, 1 mg/ml for all other dyes
# Procedure: Drinking water containing 2% (w/v) dextran sodium sulfate (DSS) was given to 8-week-old C57B6 mice (male, approximately 20 g) for 7 days. After intraperitoneal injection of 0.2 ml of 5% chloral hydrate for anesthesia, the mouse abdominal wall was incised vertically to about 1 cm, and the gastrointestinal tract was raised over the abdominal wall to about 1 cm. Blood flow to the gastrointestinal tract was maintained during this time by the blood vessel flowing into the mesenteric attachment site. The gastrointestinal tract was incised vertically to about 1 cm on opposite side of the mesenteric attachment site, including the tunica muscularis and mucosa. The opposite side of the mesenteric attachment site was incised in order to prevent severance and damage of the blood vessel and minimize bleeding. When the incision site of the gastrointestinal tract was opened vertically, the mucosal surface of the gastrointestinal tract, as the food channel, became visible. When food digestion products were present they were wiped off with tissue paper.
# A metal ring (outer diameter: 16 millimeters, inner diameter, 6 millimeters) was placed on a laboratory stage, and a rapid bonding adhesive (AronAlpha) was coated over the entire periphery of the ring surface on one side. Forceps were used to hold the rapid bonding adhesive-coated metal ring with the adhesive-coated surface facing downward, and it was set on the pronase-treated mucosal surface. During a period of about 5 minutes, the metal ring became anchored to the mucosa with the rapid bonding adhesive, and the region where the dye compound was to be applied was rinsed with PBS.
# In order to avoid drying of the mucosal surface, a curcumin stock solution or sulfuretin stock solution diluted with physiological saline (PBS) (see Tables 1 to 3 for the dilution factors) was added dropwise onto the pronase-treated mucosal surface, and after allowing it to stand for 1 minute, it was rinsed 3 times with PBS, a cover glass was placed over the metal ring, and the objective lens of a multiphoton laser microscope (FV1000 MPE by Olympus Corp.) was brought near to the top of the cover glass for image observation.
# The procedure from administration of the dye compound to observation was conducted as described above under “Evaluation of stainability” (same hereunder). Also, the administered concentration of dye to the mucosal surface was 5 mg/ml for curcumin as Dye No. 1, and 1 mg/ml for all of the other dyes.
# [3] = system: MDCK-GFP-Ras^V12 cells mixed with MDCK normal cells; test: In vitro assay of MDCK-Ras^V12 cancerized cell small aggregates as a very early cancer model; type: cell-based, canine; details: excitation 750, 800, 850, 900 nm, red fluorescence
# Procedure: The MDCK normal cells were cultured in a 10 cm dish, and the MDCK-GFP-Ras^V12 cells were cultured in a 6 cm dish. The culture solution used for the MDCK normal cells was DMEM (containing Phenol Red)+10% FBS+penicillin/streptomycin.
# The solution used for the MDCK-GFP-Ras^V12 cells was DMEM (containing Phenol Red)+10% FBS+penicillin/streptomycin+Zeocin (400 μg/ml)+blasticidin (5 μg/ml). […] The seeding was carried out using a DMEM+10% FBS+penicillin/streptomycin culture solution, to 1.0 to 3.0×10^4 cells per well of the 96-well dish. Tetracycline at a concentration of 2 μg/ml was added to the culture solution after 4 days when seeding was to 1.0×10^4 or after 1 day when seeding was to 3.0×10^4, and GFP-Ras^V12 was expressed, forming cancerized cell small aggregates among the MDCK normal cells (NPL 3). After 18 to 36 hours, the cells in each of the wells were rinsed 3 times with 200 μl of PBS, and then the Prestwick Chemical Library compounds and the Ministry of Health, Labour and Welfare-approved food additives, each diluted to 1 μM with a 100 μl volume of PBS, were added to the respective wells and taken up by the cells for 5 minutes at room temperature. They were then rinsed 3 times with 200 μl of PBS, and in certain cases further rinsed once with 100 μl of DMEM without Phenol Red, and observed under a multiphoton laser microscope.
# [4] = cited from earlier work; remark: listed apart in the source
# [5] = system: cancer lesion site versus normal mucosa of large intestine; test: Comparison of staining patterns in normal site and cancer tumor site of large intestine; type: in vivo, mouse; details: Example 1; regardless of pronase treatment of the mucosal surface
# Procedure: Drinking water containing 2% (w/v) dextran sodium sulfate (DSS) was given to 8-week-old C57B6 mice (male, approximately 20 g) for 7 days. After intraperitoneal injection of 0.2 ml of 5% chloral hydrate for anesthesia, the mouse abdominal wall was incised vertically to about 1 cm, and the gastrointestinal tract was raised over the abdominal wall to about 1 cm. Blood flow to the gastrointestinal tract was maintained during this time by the blood vessel flowing into the mesenteric attachment site. The gastrointestinal tract was incised vertically to about 1 cm on the opposite side of the mesenteric attachment site, including the tunica muscularis and mucosa. The opposite side of the mesenteric attachment site was incised in order to prevent severance and damage of the blood vessel and minimize bleeding. When the incision site of the gastrointestinal tract was opened vertically, the mucosal surface of the gastrointestinal tract, as the food channel, became visible. When food digestion products were present they were wiped off with tissue paper. In order to more clearly observe the gastrointestinal tract mucosal surface, a 1% pronase solution was dropped onto the mucosal surface and was allowed to stand still for 15 minutes. This pronase treatment removed the mucus from the mucosal surface, rendering the cell structure more easily visible. Next, the pronase was removed from the mucosal surface and rinsed with physiological saline (PBS). A metal ring (outer diameter: 16 millimeters, inner diameter, 6 millimeters) was placed on a laboratory stage, and a rapid bonding adhesive (AronAlpha) was coated over the entire periphery of the surface on one side. Forceps were used to hold the rapid bonding adhesive-coated metal ring with the adhesive-coated surface facing downward, and it was set on the pronase-treated mucosal surface. During a period of about 5 minutes, the metal ring became anchored to the mucosa with the rapid bonding adhesive, and the region where the dye compound was to be applied was rinsed with PBS. […] FIG. 32 is a drawing for illustration of a stainability evaluation step for the aforementioned dye compounds. […] Z stack image). […] Both of the staining photographs of the normal site and cancer tumor site were taken under the same conditions.
# [6] = Prestwick Chemical Library compounds, 1 μM, 5 minutes
# [7] = Ministry of Health, Labour and Welfare-approved food additives, 1 mg/ml
Compound,"LD50 ([1]; Mouse, Oral)",Cell group preferentially stained (epithelial cells/adenocytes or connective tissue/capillaries) [2],other results
Oc1ccc(-c2ccc3c(O)cc(O)cc3[o+]2)cc1.[Cl-] [Apigeninidin],300 mg/kg,,
"O=C1/C(=C2\Nc3ccc(S(=O)(=O)[O-])cc3C2=O)Nc2ccc(S(=O)(=O)[O-])cc21.[Na+].[Na+] [Blue #2, indigo carmine]",2000 mg/kg,preferentially stained connective tissue/capillaries,
CC1=C(/C=C/C(C)=C/C=C/C(C)=C/C=C/C=C(C)/C=C/C=C(C)/C=C/C(=O)[C@]2(C)C[C@@H](O)CC2(C)C)C(C)(C)C[C@H](O)C1 [Capsanthin],300 mg/kg,,
"COc1cc(-c2ccc(N=Nc3ccc4c(S(=O)(=O)[O-])cc(S(=O)(=O)[O-])c(N)c4c3O)c(OC)c2)ccc1N=Nc1ccc2c(S(=O)(=O)[O-])cc(S(=O)(=O)[O-])c(N)c2c1O.[Na+].[Na+].[Na+].[Na+] [Chicago sky blue 6B, reference compound]",,,"Staining of GFP-Ras^V12 positive cancerized cells versus MDCK normal cells [3, 6]: labeling both cancerized cell small aggregates and normal cells; Staining of GFP-Ras^V12 positive cancerized cells versus MDCK normal cells ([3]; Prestwick Chemical Library compounds, 1 μM, 5 minutes, listed as Chicago Sky Blue 6B): equal staining of normal cells and cancer cells"
"COc1cc(/C=C/C(=O)CC(=O)/C=C/c2ccc(O)c(OC)c2)ccc1O [Curcumin (pure), Curcumin]",,,"LD50 ([1]; mouse, in vivo, po): 2000 mg/kg"
Oc1cc(O)c2cc(O)c(-c3ccc(O)c(O)c3)[o+]c2c1 [Cyanidin],,,"LD50 ([4]; rat, in vivo): 1500 mg/kg"
Oc1cc(O)c2cc(O)c(-c3cc(O)c(O)c(O)c3)[o+]c2c1 [Delphinidin],,,"LD50 ([4]; rat, in vivo): 1250 mg/kg"
O=C(O[C@@H]1Cc2c(O)cc(O)cc2O[C@@H]1c1cc(O)c(O)c(O)c1)c1cc(O)c(O)c(O)c1 [Epigallocatechin gallate],2170 mg/kg,preferentially stained epithelial cells/adenocytes,
"CCCCC[C@H](O)CC(=O)CCc1ccc(O)c(OC)c1 [Gingerol, 6-gingerol]",,preferentially stained epithelial cells/adenocytes,"LD50 ([1]; mouse, in vivo, po): 250 mg/kg"
"CCN(Cc1cccc(S(=O)(=O)[O-])c1)c1ccc(C(=C2C=CC(=[N+](CC)Cc3cccc(S(=O)(=O)[O-])c3)C=C2)c2ccc(O)cc2S(=O)(=O)[O-])cc1.[Na+].[Na+] [Green #3, Fast Green FCF]",,some adenocytes and connective tissue/capillaries were strongly stained,"LD50 ([4]; Rat, Oral): >2000 mg/kg; Staining of GFP-Ras^V12 positive cancerized cells versus MDCK normal cells [3, 7]: labeled GFP-Ras^V12-positive cancerized cell small aggregates more intensely than normal cells; also recorded: specific staining of cancer cells"
"CC1(C)C(/C=C/C=C/C=C/C=C2\N(CCCCS(=O)(=O)O)c3ccc4ccccc4c3C2(C)C)=[N+](CCCCS(=O)(=O)[O-])c2ccc3ccccc3c21 [Indocyanine green, reference compound]",,preferentially stained epithelial cells/adenocytes,
COc1cc(-c2[o+]c3cc(O)cc(O)c3cc2O)cc(OC)c1O [Malvidin],,,"LD50 ([1]; Mouse, Intra-venous): 18 mg/kg"
O=c1c(O)c(-c2cc(O)c(O)c(O)c2)oc2cc(O)cc(O)c12 [Myricetin],300 mg/kg,preferentially stained epithelial cells/adenocytes,
Oc1ccc(-c2[o+]c3cc(O)cc(O)c3cc2O)cc1 [Pelargonidin],300 mg/kg,,
COc1cc(-c2[o+]c3cc(O)cc(O)c3cc2O)cc(O)c1O [Petunidine],,preferentially stained epithelial cells/adenocytes,"LD50 ([1]; Mouse, Intra-abdominal): 4110 mg/mL"
O=c1c(O)c(-c2ccc(O)c(O)c2)oc2cc(O)cc(O)c12 [Quercetin],,intensely stained connective tissue/capillaries and faintly stained epithelial cells/adenocytes,
O=S(=O)([O-])c1ccc2c(N=Nc3ccc(S(=O)(=O)[O-])c4ccccc34)c(O)c(S(=O)(=O)[O-])cc2c1.[Na+].[Na+].[Na+] [Red #2],,,"LD50 ([1]; Mouse, Intra-abdominal): 1000 mg/kg"
"O=C1OC2(c3ccccc31)c1cc(I)c(O)c(I)c1Oc1c2cc(I)c(O)c1I [Red #3, erythrosine]",,preferentially stained epithelial cells/adenocytes,"Staining of GFP-Ras^V12 positive cancerized cells versus MDCK normal cells [3, 7]: GFP-Ras^V12 positive cells were preferentially stained; Staining of GFP-Ras^V12 positive cancerized cells versus MDCK normal cells ([3]; Ministry of Health, Labour and Welfare-approved food additives, 1 mg/ml, listed as erythrosine): labeled GFP-Ras^V12-positive cancerized cell small aggregates more intensely than normal cells; Staining of cancer lesion sites compared with normal mucosa [5]: stained cancer lesion sites much more intensely than normal mucosa; LD50 ([1]; mouse, in vivo, po): 6800 mg/kg"
O=C([O-])c1c(Cl)c(Cl)c(Cl)c(Cl)c1-c1c2cc(I)c(=O)c(I)c-2oc2c(I)c([O-])c(I)cc12.[Na+].[Na+] [Red #105 (720 nm)],6480 mg/kg,,
"CCN(CC)c1ccc2c(-c3ccc(S(=O)(=O)[O-])cc3S(=O)(=O)[O-])c3ccc(=[N+](CC)CC)cc-3oc2c1.[Na+] [Red #106, Acid Red]",">20,000 mg/kg","the cell membranes of epithelial cells and adenocytes, and connective tissue/capillaries were strongly stained","Staining of GFP-Ras^V12 positive cancerized cells versus MDCK normal cells [3, 7]: labeled both cancerized cell small aggregates and normal cells; also recorded: staining of both normal cells and cancer cells; LD50 ([1]; Mouse, Oral, listed as Acid Red): >20000 mg/kg"
Oc1ccc2cc(O)c(-c3cc(O)c(O)c(O)c3)[o+]c2c1 [Robinetinidin],,preferentially stained connective tissue/capillaries,
Oc1cc(O)c2ccc(-c3cc(O)c(O)c(O)c3)[o+]c2c1 [Tricetinidin],300 mg/kg,preferentially stained epithelial cells/adenocytes,
"O=C(O)c1nn(-c2ccc(S(=O)(=O)O)cc2)c(O)c1N=Nc1ccc(S(=O)(=O)O)cc1 [Yellow #4, tartrazine]",12750 mg/kg,,
"O=S(=O)([O-])c1ccc(N=Nc2c(O)ccc3cc(S(=O)(=O)[O-])ccc23)cc1.[Na+].[Na+] [Yellow #5, Sunset Yellow FCF]",>6000 mg/kg,,
"COc1cccc2c1C(=O)c1c(O)c3c(c(O)c1C2=O)C[C@@](O)(C(=O)CO)C[C@@H]3O[C@H]1C[C@H](N)[C@H](O)[C@H](C)O1 [doxorubicin hydrochloride, reference compound]",,,"Staining of GFP-Ras^V12 positive cancerized cells versus MDCK normal cells ([3]; Prestwick Chemical Library compounds, 1 μM, 5 minutes, hydrochloride): intensely labeling MDCK normal cells compared to cancerized cell small aggregates; also recorded: GFP-Ras^V12 cells were not specifically stained, but normal cells were stained"
"O=C([O-])c1ccccc1-c1c2cc(Br)c(=O)cc-2oc2[c]([Hg+])c([O-])c(Br)cc12.[Na+].[Na+].[OH-] [merbromin, reference compound]",,,"Staining of GFP-Ras^V12 positive cancerized cells versus MDCK normal cells [3, 6]: intensely labeled in GFP-Ras^V12 positive cancerized cell small aggregates compared to normal cells; also recorded: GFP-Ras^V12 positive cells were preferentially stained"
CC1=C(/C=C/C(C)=C/C=C/C(C)=C/C=C/C=C(C)/C=C/C=C(C)/C=C/C2=C(C)CCCC2(C)C)C(C)(C)CCC1 [β-Carotene],,preferentially stained epithelial cells/adenocytes,"LD50 ([4]; Rat, Oral): 5000 mg/kg"
meclocycline sulfosalicylate [reference compound],,,"Staining of GFP-Ras^V12 positive cancerized cells versus MDCK normal cells [3, 6]: intensely labeled in GFP-Ras^V12 positive cancerized cell small aggregates compared to normal cells; also recorded: GFP-Ras^V12 positive cells were preferentially stained"
